This is an account of results in patent US8546377B2 (AbbVie Inc., priority 2009, dated 2013).

In one assay the target is T1, 5HT2B receptors (Homo sapiens, UniProt P41595).
T1 construct: expressed in transfected cells; host or cells: CHO-K1 cells
As to the kind of experiment: Human 5-HT2B functional assay in CHO-K1 cells (calcium flux, FLIPR). It is filed as cell-based. Put shortly: (§1)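 Frozen CHO-K1 cells over-expressing receptor, serum-starved overnight, loaded with Ca4 dye plus 2.5 mM probenecid for 60 min at room temperature. FLIPR fluorescence (ex 480/em 530 nm, 25° C) recorded 3 min after compound addition; 6-point 1:10 series from 10 μM, 0.2% DMSO. Response normalized to serotonin, 4-parameter fit gives EC50; Emax as % of serotonin.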
(Calcium assays in cells follow changes in intracellular calcium, usually with a dye or a luminescent sensor.)

Assay [1] relates to AMP-induced hyperactivity. As to the kind of experiment: d-Amphetamine-induced hyperlocomotion in mice. In kind it is in vivo. An excerpt: (§2) (v) Assessment of Effects on Psychostimulant-Induced Hyperlocomotion in Mice
In both humans and experimental animals amphetamine profoundly affects motor activity, sensorimotor function, sleep, attention, aggressive and sexual behaviors, learning and memory, operant behaviors, appetite and food intake. In addition, amphetamine induces psychotic reactions in normal individuals and exacerbates symptoms of schizophrenia in patients. In experimental animals several distinct behaviors are considered to be correlates of amphetamine psychosis. For example, amphetamine-induced hyperactivity in rodents is believed to model the psychotic symptoms of schizophrenia. Reversal of these behaviors is used to predict potential antipsychotic activity of drugs in pre-clinical studies.
(§3) Male NMRI mice (5-week old, Janvier, France) or C57BL/6J mice (6-week old, Janvier, France) were group housed and allowed ad-libitum access to food and water. A 12 hour light/dark cycle was imposed with lights-on period between 0530 and 1730 hours. All testing occurred between 700 and 1300 hours. All procedures were approved by Abbott Institutional Animal Care and Use Committee (USA) or Animal Welfare Officer (Germany) and were conducted in accordance with the National Institutes of Health Guide for Care and Use of Laboratory Animals guidelines and applicable national laws in the facilities accredited by the Association for the Assessment and Accreditation of Laboratory Animal Care.
On the day of experiment, animals were brought from the animal facility into the experimental room and were allowed to acclimatize for at least 30 minutes. Animals were then placed in the test cages for a habituation period of 60 minutes. The animals were then injected ip with the test compound and returned to the test cage. 30 Minutes later, the mice were injected with d-amphetamine (2.0 mg/kg, AMP, Sigma, #A5880, sc) or phencyclidine (2.0 mg/kg, PCP, Sigma, #P3029, sc), and returned to the test cages for 90 minutes. […] The analyzed data were: fine movements, ambulations and total movements (fine+ambulations). […]

The subject of another assay is spontaneous activity. As to the kind of experiment: Spontaneous activity in mice. It is filed as in vivo. To be noted: vehicle or a dose of test compound, FIG. 2b, FIG. 3b.
In assay [2] the target is T2, 5HT2C receptors (Homo sapiens, UniProt P28335).
T2 sequence (P28335 33-458): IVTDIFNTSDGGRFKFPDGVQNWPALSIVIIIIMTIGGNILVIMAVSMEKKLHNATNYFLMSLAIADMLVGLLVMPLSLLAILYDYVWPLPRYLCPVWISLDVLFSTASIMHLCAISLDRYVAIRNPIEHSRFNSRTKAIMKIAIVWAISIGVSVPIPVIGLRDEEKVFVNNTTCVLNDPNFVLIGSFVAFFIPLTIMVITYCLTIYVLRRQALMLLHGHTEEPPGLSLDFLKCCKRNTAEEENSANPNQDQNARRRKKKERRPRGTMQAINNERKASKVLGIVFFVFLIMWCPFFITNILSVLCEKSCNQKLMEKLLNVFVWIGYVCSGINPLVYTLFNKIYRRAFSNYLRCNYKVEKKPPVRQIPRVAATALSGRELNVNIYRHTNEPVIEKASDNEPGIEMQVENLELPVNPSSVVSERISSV
The assay is described as follows: Human 5-HT2C functional assay in CHO-K1 cells (calcium flux, FLIPR). In kind it is cell-based. The arrangement: expressed in transfected cells; host or cells: CHO-K1 cells. To be noted: for Emax: percentage relative to the effect of serotonin. The method, boiled down:
as §1

The target of assay [3] is T3, human serotonin 5-HT2c receptor (Homo sapiens, UniProt P28335).
T3 construct: expressed in transfected cells; host or cells: CHO cells (membrane homogenate)
T3 sequence (P28335 33-458): T2 sequence (P28335 33-458)
The assay is described as follows: Human 5-HT2C receptor radioligand binding assay (agonist site, [125I](±)DOI). As to conditions: membranes of transfected CHO cells, 0.2 nM [125I](±)DOI, 15 minutes at 37° C. Put shortly: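 Affinity for the agonist site measured by radioligand binding in transfected CHO cells expressing the human receptor, using [125I](±)DOI.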

The test system of assay [4] is PCP-induced hyperactivity. As to the kind of experiment: Phencyclidine (PCP)-induced hyperlocomotion in mice. To be noted: test compound ip 30 minutes before phencyclidine 2.0 mg/kg sc, FIG. 4. In kind it is in vivo. As to the method: as §2
In humans, phencyclidine (PCP) is known to produce a syndrome of behavioral effects which have many characteristics in common with schizophrenia. Therefore, antagonism of PCP effects might be evidence for antipsychotic efficacy of a compound.
as §3
On the day of experiment, animals were brought from the animal facility into the experimental room and were allowed to acclimatize for at least 30 minutes. Animals were then placed in the test cages for a habituation period of 60 minutes. […] The analyzed data were: fine movements, ambulations and total movements (fine+ambulations). […]

Assay [5] deals with T2, 5HT2C receptors. The assay is described as follows: Human 5-HT2C functional assay in 1321N1 cells (intracellular calcium, FLIPR). The arrangement: expressed in transfected cells; host or cells: 1321N1 cells. In kind it is cell-based. Put shortly: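 Intracellular calcium in 1321N1 cells stably transfected with human 5-HT2C, serum-starved overnight, Fluo4 AM-loaded with 1% probenecid. Compounds at 10^−10 to 10^−5 M final, alone or with 10^−9 M serotonin; peak FLIPR response. EC50 from four-parameter logistic fit; Emax as % of serotonin effect.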

The structures appear in SMILES notation. Entries after “also recorded” stand apart in the source; their conditions may differ. Where two headings read alike, the source gives them in different places.

T1 sequence (P41595 whole entry): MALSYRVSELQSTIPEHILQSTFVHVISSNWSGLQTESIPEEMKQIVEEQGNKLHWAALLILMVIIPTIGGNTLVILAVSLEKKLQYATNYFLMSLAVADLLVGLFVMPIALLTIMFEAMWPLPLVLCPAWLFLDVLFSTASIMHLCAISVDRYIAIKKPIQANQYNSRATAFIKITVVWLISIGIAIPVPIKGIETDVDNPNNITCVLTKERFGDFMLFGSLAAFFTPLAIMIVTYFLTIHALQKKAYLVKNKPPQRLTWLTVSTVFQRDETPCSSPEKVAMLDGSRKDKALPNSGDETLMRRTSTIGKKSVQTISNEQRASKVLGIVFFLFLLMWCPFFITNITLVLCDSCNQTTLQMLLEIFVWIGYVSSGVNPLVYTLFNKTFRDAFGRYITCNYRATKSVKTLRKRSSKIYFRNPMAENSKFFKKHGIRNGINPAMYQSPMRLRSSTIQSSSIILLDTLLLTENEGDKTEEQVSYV

Regarding `CCOc1ccc2c(c1)N1CCNC[C@@H]1CC(=O)N2` [Example 181, (4aS)-10-ethoxy-1,2,3,4,4a,5-hexahydropyrazino[1,2-a][1,5]benzodiazepin-6(7H)-one], the 50% effective concentration (EC50) was over 10 µM on 5HT2B receptors (CHO-K1 cells over-expressing 5HT2B, calcium flux, read-out: EC50 (μM), 5-HT2B Agonist Activity) and 0.02 µM at 5HT2C receptors [2] (CHO-K1 cells over-expressing 5HT2C, calcium flux, read-out: EC50 (μM), 5-HT2c Agonist Activity). Also, the AMP-induced hyperactivity result in assay [1] (1.0 and 3.0 mg/kg ip before d-amphetamine 2.0 mg/kg sc, FIG. 2a) is “attenuated AMP-induced hyperactivity significantly and in a dose dependent manner; also recorded: concentration-dependent effects of Example 181 attenuating the affect of d-amphetamine”. Moreover, the “spontaneous activity (total activity counts)” value in the assay on spontaneous activity is listed as “no effects; also recorded: No change in spontaneous activity regardless of dose”. Besides, the Emax on 5HT2C receptors [2] (CHO-K1 cells, read-out: Emax (%), 5-HT2c Agonist Activity) was over 120%.

`c1ccc2c(c1)OCC[C@H]1CNCCN21` [Example 169, (4aS)-2,3,4,4a,5,6-hexahydro-1H-pyrazino[2,1-d][1,5]benzoxazepine]: the EC50 was over 10 µM on 5HT2B receptors and 0.001 µM at 5HT2C receptors [2]. Besides, in assay [1] (10 and 30 mg/kg ip before d-amphetamine 2.0 mg/kg sc, FIG. 3a), the AMP-induced hyperactivity entry is “attenuated AMP-induced hyperactivity significantly and in a dose dependent manner; also recorded: concentration-dependent effects of Example 169 attenuating the affect of d-amphetamine”. Moreover, the “spontaneous activity (total activity counts)” value in the assay with spontaneous activity is “no effects; also recorded: No change in spontaneous activity regardless of dose”. For the same compound, on 5HT2C receptors [2] (CHO-K1, read-out: Emax (%), 5-HT2c Agonist Activity, CHO-K1 cells), the Emax was over 120%.

Consider `O=C1C[C@H]2CNCCN2c2ccccc2N1` [Example 2, (4aS)-1,2,3,4,4a,5-hexahydropyrazino[1,2-a][1,5]benzodiazepin-6(7H)-one], for which the Ki in assay [3] came out at 0.016 µM. In addition, in assay [4], the PCP-induced hyperactivity result is “attenuated PCP-induced hyperactivity significantly and in a dose dependent manner; also recorded: concentration-dependent effects of Example 2 attenuating the affect of phencyclidine (PCP)”. In addition, at 5HT2C receptors [5] (1321N1 cells stably transfected, maximum calcium response, read-out: EC50 (μM), 5-HT2c Agonist Activity), the 50% effective concentration (EC50) was found to be 0.0192 µM. In addition, on 5HT2C receptors [5] (1321N1 cells, percentage relative to the effect of serotonin, read-out: Emax (%), 5-HT2c Agonist Activity), the Emax is 90%.

The EC50 is the concentration that produces a half-maximal response. By Emax is commonly meant the size of the effect at its maximum, as opposed to the concentration needed. In general, Ki refers to the equilibrium dissociation constant of an inhibitor or competing ligand from its target. The low end stands for a stronger hold on the target, the high end for a looser hold on the target.
